Results as given in patent US9056887B2, “Minor groove binder phosphoramidites and methods of use” (Elitech Holding B.V., priority 2011, dated 2015).

Assay: Solubility of MGB phosphoramidites in acetonitrile (oligonucleotide synthesis solvent)
Assay type: physicochemical
Conditions: standard solvent for on-line oligosynthesis
Experimental: Activated pentafluorophenyl ester 1 of the DPI3 type of minor groove bindinding ligands was prepared as previously described (U.S. Pat. No. 7,381,818) and coupled with four secondary amine-containing terminal functions generatin trimers 2(a-d), (Reaction Scheme 1, FIG. 1) suitable for following protection and phosphoramidite preparation. The use of secondary amino function prevents the possibility of the formation of acyclic side-product (Basel and Hassner 2000) during the following protection step. The trimers 2(a-d) were reacted with diethyl pyrocarbonate in the presence of DMAP to protect the three heteroaromatic indolamino groups and afford carbomates 3(a-d). Methyl and tert-butyl dicarbonates were also tested and produced the respective carbamates with good yields. […] Therefore, the ethylcarbamate protection was concluded to be optimal allowing fast deprotection and providing the required solubility in acetonitrile. […]
Test octathymidylates were synthesized on an ABI 3900 DNA synthesizer using thymidine-5′- or 3′-phosphoramidites and a DMT-O-hexylsuccinate solid support. […] Crude reaction mixtures were concentrated in a SpeedVac evaporator and analyzed by mass spectroscopy to confirm molecular weight and determine purity of crude MGB-oligonucleotide conjugates. […]

With `CCOC(=O)n1c(-c2ccc(OCCCCCCOP(OCCC#N)N(C(C)C)C(C)C)cc2)nc2cc(-c3nc4cc(-c5nc6cc(N7CCN(C)CC7)ccc6n5C(=O)OCC)ccc4n3C(=O)OCC)ccc21` (stereo not shown) [Phosphoramidite 25] the solubility in acetonitrile was “only sparingly soluble”.
